How the values were obtained:
[1] = molecular target: T1, Human recombinant collagenase-1 (Homo sapiens, UniProt P03956); assay: Inhibition of human collagenase-1 (recombinant collagenase-1 assay); type: biochemical; settings: Table 2, read-out: MMP-1 (IC50 class)
T1 sequence (P03956 100-469): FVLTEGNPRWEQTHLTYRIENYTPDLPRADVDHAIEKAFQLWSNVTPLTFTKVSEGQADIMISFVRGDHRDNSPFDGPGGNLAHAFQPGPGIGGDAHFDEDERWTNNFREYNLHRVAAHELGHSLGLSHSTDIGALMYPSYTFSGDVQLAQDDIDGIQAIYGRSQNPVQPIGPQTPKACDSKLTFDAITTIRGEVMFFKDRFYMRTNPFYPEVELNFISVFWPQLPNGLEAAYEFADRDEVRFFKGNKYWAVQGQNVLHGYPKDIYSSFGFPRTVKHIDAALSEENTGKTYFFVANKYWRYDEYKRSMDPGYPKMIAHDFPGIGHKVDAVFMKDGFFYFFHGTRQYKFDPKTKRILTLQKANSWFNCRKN
Protocol: Inhibition of Human Collagenase-1 (Recombinant Collagenase-1 Assay)
This assay is used in the invention to measure the potency (IC50s) of compounds for collagenase-1.
Human recombinant collagenase-1 is activated with trypsin. The amount of trypsin is optimized for each lot of collagenase-1, but a typical reaction uses the following ratio: 5 mg trypsin per 100 mg of collagenase.
Stock solutions (10 mM) of inhibitors are made up in dimethylsulfoxide and then diluted using the following scheme: • 10 mM------>120 μM------>12 μM------>1.2 μM------>0.12 μM
Twenty-five microliters of each concentration is then added in triplicate to appropriate wells of a 96 well microfluor plate. The final concentration of inhibitor will be a 1:4 dilution after addition of enzyme and substrate. Positive controls (enzyme, no inhibitor) are set up in wells D7–D12 and negative controls (no enzyme, no inhibitors) are set in wells D1–D6.
Collagenase-1 is diluted to 240 ng/ml and […] is then added to appropriate wells of the microfluor plate. Final concentration of collagenase in the assay is 60 ng/ml.
Substrate (DNP-Pro-Cha-Gly-Cys(Me)-His-Ala-Lys(NMA)-NH2) is made as a 5 mM stock in dimethylsulfoxide and then diluted to 20 μM in assay buffer. The assay is initiated by the addition of […] substrate per well of the microfluor plate to give a final concentration of 10 μM.
Fluorescence readings (360 nm excitation, 460 nm emission) are taken at time 0 and then at about 20 minute intervals. The assay is conducted at a temperature of about 20 to about 25° C., preferably about 23° C. with a typical assay time of about 3 hours.
Fluorescence versus time is then plotted for both the blank and collagenase containing samples (data from triplicate determinations is averaged). A time point that provides a good signal (at least five fold over the blank) and that is on a linear part of the curve (usually around 120 minutes) is chosen to determine IC50 values. The zero time is used as a blank for each compound at each concentration and these values are subtracted from the 120 minute data. Data is plotted as inhibitor concentration versus % control (inhibitor fluorescence divided by fluorescence of collagenase alone ×100).

[2] = molecular target: Human recombinant collagenase-3 (Homo sapiens, UniProt P45452); assay: Inhibition of human collagenase-3 (recombinant collagenase-3 assay); type: biochemical; settings: Table 2; recombinant collagenase-3 assay; read-out: MMP-13 (IC50 class)
Protocol: Inhibition of Human Collagenase-3 (Recombinant Collagenase-3 Assay)
This assay is used in the invention to measure the potency (IC50s) of compounds for collagenase-3.
Human recombinant collagenase-3 is activated with 2 mM APMA (p-aminophenyl mercuric acetate) for about 2.0 hours, at about 37° C. and is diluted to about 240 ng/ml in assay buffer (50 mM Tris, pH 7.5, 200 mM sodium chloride, 5 mM calcium chloride, […], 0.02% BRIJ-35). Twenty-five micro-liters of diluted enzyme is added per well of a 96 well microfluor plate.
The final concentrations in the assay are 30 μM, 3 μM, 0.3 μM, and 0.03 μM.
Fluorescence readings (360 nm excitation; 450 nm emission) are taken at time 0 and about every 5 minutes for about 1 hour.
Positive controls and negative controls are set up in triplicate as outlined in the collagenase-1 assay. IC50's are determined as per inhibition of human collagenase (collagenase-1).

aggrecanase = assay: Aggrecanase chondrocyte assay (35S-proteoglycan release, IL-1 stimulated); type: cell-based, porcine; settings: Table 2; aggrecanase chondrocyte assay; read-out: Agg (aggrecanase IC50 class)
Protocol: Aggrecanase Chondrocyte Assay
This assay is used in the invention to measure the potency (IC50s) of compounds for aggrecanase.
Primary porcine chondrocytes from articular joint cartilage are isolated by sequential trypsin and collagenase digestion followed by collagenase digestion overnight and are plated at 2×10^5 cells per well into 48 well plates with 5 μCi/ml ^35S (1000 Ci/mmol) sulphur in type I collagen coated plates. Cells are allowed to incorporate label into their proteoglycan matrix (approximately 1 week) at 37° C., under an atmosphere of 5% CO2.
The night before initiating the assay, chondrocyte monolayers are washed two times in DMEM/1% PSF/G and then allowed to incubate in fresh DMEM/1% FBS overnight.
The following morning chondrocytes are washed once in DMEM/1% PSF/G. The final wash is allowed to sit on the plates in the incubator while making dilutions. Media and dilutions can be made as described in the Table I below.
Plates are labeled and only the interior 24 wells of the plate are used. On one of the plates, several columns are designated as IL-1 (no drug) and Control (no IL-1, no drug). These control columns are periodically counted to monitor 35S-proteoglycan release. Control and IL-1 media are added to wells (450 μl) followed by compound (50 μl) so as to initiate the assay. Plates are incubated at 37° C., with a 5% CO2 atmosphere.
At 40–50% release (when CPM from IL-1 media is 4–5 times control media) as assessed by liquid scintillation counting (LSC) of media samples, the assay is terminated (about 9 to about 12 hours). Media is removed from all wells and placed in scintillation tubes. Scintillate is added and radioactive counts are acquired (LSC). To solubilize cell layers, 500 μL of papain digestion buffer (0.2 M Tris, pH 7.0, 5 mM EDTA, 5 mM DTT, and 1 mg/ml papain) is added to each well. Plates with digestion solution are incubated at 60° C. overnight. The cell layer is removed from the plates the next day and placed in scintillation tubes. Scintillate is then added, and samples counted (LSC).
The percent of released counts from the total present in each well is determined. Averages of the triplicates are made with control background subtracted from each well.

TACE = molecular target: T2, TACE (Homo sapiens, UniProt P78536); assay: Inhibition of soluble TNF-α production (TACE whole blood assay); type: cell-based; settings: Table 2, read-out: TACE (IC50 class)
T2 construct: Human mononuclear cells are isolated from anti-coagulated human blood; endogenous in cells; host or cells: human peripheral blood mononuclear cells, LPS stimulated
Protocol: Inhibition of Soluble TNF-α Production (TACE Whole Blood Assay)
This assay is used in the invention to measure the potency (IC50s) of compounds for TACE.
Human mononuclear cells are isolated from anti-coagulated human blood using a one-step Ficoll-hypaque separation technique. (2) The mononuclear cells are washed three times in Hanks balanced salt solution (HBSS) with divalent cations and re-suspended to a density of 2×10^6/ml in HBSS containing 1% BSA.
180 μL of the cell suspension was aliquoted into flat bottom 96 well plates (Costar). Additions of compounds and LPS (100 ng/ml final concentration) gives a final volume of 200 μL. All conditions are performed in triplicate. After about a four hour incubation at about 37° C. in an humidified CO2 incubator, plates are removed and centrifuged (about 10 minutes at approximately 250×g) and the supernatants removed and assayed for TNF-α using the R&D ELISA Kit.

T2 sequence (P78536 215-824): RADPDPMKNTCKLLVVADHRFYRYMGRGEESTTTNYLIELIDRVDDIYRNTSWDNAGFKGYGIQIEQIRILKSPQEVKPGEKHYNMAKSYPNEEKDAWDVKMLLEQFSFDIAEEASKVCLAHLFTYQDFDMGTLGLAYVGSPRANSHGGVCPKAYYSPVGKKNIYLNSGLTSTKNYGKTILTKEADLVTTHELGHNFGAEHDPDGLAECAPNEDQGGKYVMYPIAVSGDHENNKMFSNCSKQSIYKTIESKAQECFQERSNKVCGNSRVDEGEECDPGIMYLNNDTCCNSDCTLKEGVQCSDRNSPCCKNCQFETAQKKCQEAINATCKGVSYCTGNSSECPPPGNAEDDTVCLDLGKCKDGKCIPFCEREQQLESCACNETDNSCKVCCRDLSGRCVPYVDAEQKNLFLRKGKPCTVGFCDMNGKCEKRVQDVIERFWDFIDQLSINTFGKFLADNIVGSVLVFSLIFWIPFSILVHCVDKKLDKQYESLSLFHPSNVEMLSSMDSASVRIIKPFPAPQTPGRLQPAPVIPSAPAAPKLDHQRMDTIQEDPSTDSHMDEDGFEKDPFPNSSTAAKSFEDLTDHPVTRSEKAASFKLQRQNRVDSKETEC

| SMILES | IC50 [1] | IC50 [2] | IC50 (aggrecanase) | IC50 (TACE) |
| --- | --- | --- | --- | --- |
| Cc1ccccc1COc1ccc(S(=O)(=O)N2CCN(C(=O)CN)[C@@H](C)[C@@H]2C(=O)NO)cc1 [(2R,3S) 1-[4-(2-methyl-benzyloxy)-benzenesulfonyl]-4-aminoacetyl-3-methyl-piperazine-2-carboxylic acidhydroxyamide] | > 1000 nM | 20 to 200 nM | < 10 nM | < 10 µM |
| Cc1cc(F)ccc1COc1ccc(S(=O)(=O)N2CC(=O)N[C@@H](C)[C@@H]2C(=O)NO)cc1 [(2R,3S) 1-[4-(4-fluoro-2-methyl-benzyloxy)-benzenesulfonyl]-3-methyl-5-oxo-piperazine-2-carboxylic acidhydroxyamide] | > 1000 nM | 10 to 20 nM | < 10 nM | < 10 µM |
| CNC(=O)N1CCN(S(=O)(=O)c2ccc(OCc3ccc(F)cc3F)cc2)[C@@H](C(=O)NO)[C@@H]1C [(2R,3S) 4-[4-(2,4-difluoro-benzyloxy)-benzenesulfonyl]-3-methyl-4-carboxylic acidmethylamide-piperazine-2-carboxylic acidhydroxyamide] | 200 to 1000 nM | < 10 nM | 10 to 20 nM | 10 to 20 µM |
| CCc1ccccc1COc1ccc(S(=O)(=O)N2CCN(C(=O)NC)[C@@H](C)[C@@H]2C(=O)NO)cc1 [(2R,3S) 4-[4-(2-ethyl-benzyloxy)-benzenesulfonyl]-3-methyl-4-carboxylic acidmethylamide-piperazine-2-carboxylic acidhydroxyamide] | > 1000 nM | 20 to 200 nM | < 10 nM | < 10 µM |
| CC1(C)C[C@@H](O)CN(S(=O)(=O)c2ccc(OCc3ccc(Cl)cc3Cl)cc2)[C@H]1C(=O)NO [(2R,5R) 1-[4-(2,4-dichloro-benzyloxy)-benzenesulfonyl]-5-hydroxy-3,3-dimethyl-piperidine-2-carboxylic acidhydroxyamide] | 200 to 1000 nM | < 10 nM | < 10 nM | 20 to 40 µM |
| CC1(C)C[C@@H](O)CN(S(=O)(=O)c2ccc(OCc3ccc(F)cc3)cc2)[C@H]1C(=O)NO [(2R,5R) 1-[4-(4-fluoro-benzyloxy)-benzenesulfonyl]-5-hydroxy-3,3-dimethyl-piperidine-2-carboxylic acidhydroxyamide] | 20 to 200 nM | < 10 nM | < 10 nM | 10 to 20 µM |

Other lines, results leading:

| IC50 [1] | IC50 [2] | IC50 (aggrecanase) | IC50 (TACE) | SMILES |
| --- | --- | --- | --- | --- |
| 200 to 1000 nM | < 10 nM | 10 to 20 nM | < 10 µM | CC1(C)C[C@@H](O)CN(S(=O)(=O)c2ccc(OCc3ccccc3Br)cc2)[C@H]1C(=O)NO [(2R,5R) 1-[4-(2-bromo-benzyloxy)-benzenesulfonyl]-5-hydroxy-3,3-dimethyl-piperidine-2-carboxylic acidhydroxyamide] |
| 200 to 1000 nM | < 10 nM | < 10 nM | 10 to 20 µM | CC1(C)C[C@@H](O)CN(S(=O)(=O)c2ccc(OCc3ccc(F)cc3Cl)cc2)[C@H]1C(=O)NO [(2R,5R) 1-[4-(2-chloro-4-fluoro-benzyloxy)-benzenesulfonyl]-5-hydroxy-3,3-dimethyl-piperidine-2-carboxylic acidhydroxyamide] |
| 200 to 1000 nM | < 10 nM | 10 to 20 nM | 10 to 20 µM | CC1(C)C[C@@H](O)CN(S(=O)(=O)c2ccc(OCc3cc(Cl)ccc3F)cc2)[C@H]1C(=O)NO [(2R,5R) 1-[4-(2-fluoro-5-chloro-benzyloxy)-benzenesulfonyl]-5-hydroxy-3,3-dimethyl-piperidine-2-carboxylic acidhydroxyamide] |
| 200 to 1000 nM | < 10 nM | < 10 nM | < 10 µM | Cc1c(F)cccc1COc1ccc(S(=O)(=O)N2C[C@H](O)CC(C)(C)[C@@H]2C(=O)NO)cc1 [(2R,5R) 1-[4-(2-methyl-3-fluoro-benzyloxy)-benzenesulfonyl]-5-hydroxy-3,3-dimethyl-piperidine-2-carboxylic acidhydroxyamide] |
| > 1000 nM | 20 to 200 nM | 10 to 20 nM | 10 to 20 µM | Cc1ccc(Cl)cc1COc1ccc(S(=O)(=O)N2C[C@H](O)CC(C)(C)[C@@H]2C(=O)NO)cc1 [(2R,5R) 1-[4-(2-methyl-5-chloro-benzyloxy)-benzenesulfonyl]-5-hydroxy-3,3-dimethyl-piperidine-2-carboxylic acidhydroxyamide] |
| 200 to 1000 nM | < 10 nM | < 10 nM | < 10 µM | Cc1cc(F)ccc1COc1ccc(S(=O)(=O)N2C[C@H](O)CC(C)(C)[C@@H]2C(=O)NO)cc1 [(2R,5R) 1-[4-(4-fluoro-2-methyl-benzyloxy)-benzenesulfonyl]-5-hydroxy-3,3-dimethyl-piperidine-2-carboxylic acidhydroxyamide] |
